Experimental data: US20220213052A1, “INHIBITORS OF RNA-BINDING PROTEINS, COMPOSITIONS THEREOF, AND THERAPEUTIC USES THEROF” (The University of North Carolina at Chapel Hill, priority 2019, published 2022)

Legend:
[1] = biological target: T1, HuR-bound target mRNAs in MDA-MB-231 cells (Homo sapiens, UniProt Q15717); test: Ribonucleoprotein immunoprecipitation (RNP-IP) pull-down assay; type: cell-based; settings: 10 μM
T1 construct: endogenous in cells; host or cells: MDA-MB-231
Description: Pull-down Assay #2—Ribonuleoprotein Immunoprecipitation (RNP-IP): Cells with HuR overexpression were treated with compounds, then the cell cytoplasmic lysates collected using NE-PER Nuclear and Cytoplasmic Extraction Kit (Thermo Scientific), then the cell cytoplasmic lysates incubated with anti-HuR antibody, and subsequently Protein G agarose beads (from Roche) added to pull down HuR protein. The HuR-bound target mRNAs pulled down were measured by qRT-PCR using a reported method (Ji, Q., et al., MicroRNA miR-34 inhibits human pancreatic cancer tumor-initiating cells. PLoS One, 2009. 4(8): p. e6816, incorporated herein by reference). Mouse IgG will be used as negative control. Compounds of the present technology block the target mRNAs pulled down by HuR antibody.

[2] = tested on: triple-negative breast cancer cell line MDA-MB-231; test: Cytotoxicity assay (WST-8), MDA-MB-231; type: cell-based; settings: Homo sapiens, 96 h incubation
How it was run: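 Cells (3,000-5,000/well) were treated in triplicate with titrated compounds for 96 h, then WST-8 was added for 1-3 h at 37° C and absorbance read at 450 nm (650 nm correction). IC50 (50% growth inhibition vs vehicle) came from sigmoid curve fitting.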

[3] = biological target: T2, full-length human HuR protein (Homo sapiens, UniProt Q15717); test: FP assay of HuR-Msi1 ARE binding inhibition; settings: HuR-Msi1 ARE interaction; read-out: HuR Ki via FP assay
T2 construct: full-length human HuR protein was produced by the KU COBRE-PSF Protein Purification Group; made in house
T2 sequence (Q15717 whole entry): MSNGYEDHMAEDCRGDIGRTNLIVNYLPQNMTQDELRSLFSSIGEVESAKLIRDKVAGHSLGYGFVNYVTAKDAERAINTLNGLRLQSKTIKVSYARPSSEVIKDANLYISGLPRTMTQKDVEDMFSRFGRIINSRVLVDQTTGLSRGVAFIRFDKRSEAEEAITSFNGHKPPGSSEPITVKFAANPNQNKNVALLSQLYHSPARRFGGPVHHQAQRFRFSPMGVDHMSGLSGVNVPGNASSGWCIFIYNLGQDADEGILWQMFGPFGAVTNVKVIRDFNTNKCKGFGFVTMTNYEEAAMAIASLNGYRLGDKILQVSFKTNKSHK
How it was run: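 Fluorescence polarization competition using full-length human HuR protein and a 3′-fluorescein-labelled 16-nt Msi1 ARE RNA. A fluorescein-labelled degenerate 16-nt RNA served as negative control.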

[4] = biological target: T3, RNA-binding protein Lin-28 homolog B (LIN28B) (Homo sapiens, UniProt Q6ZN17); test: LIN28B FP assay
T3 sequence (Q6ZN17 1-250): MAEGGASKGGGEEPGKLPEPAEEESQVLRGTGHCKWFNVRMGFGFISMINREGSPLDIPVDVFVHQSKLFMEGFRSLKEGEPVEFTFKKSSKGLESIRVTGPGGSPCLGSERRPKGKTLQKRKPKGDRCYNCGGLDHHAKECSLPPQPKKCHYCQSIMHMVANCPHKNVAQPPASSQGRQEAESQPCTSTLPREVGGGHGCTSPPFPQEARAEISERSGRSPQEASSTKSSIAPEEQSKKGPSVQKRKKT

[5] = biological target: T4, HuR protein bound to ARE^Msi1-Biotin (Homo sapiens, UniProt Q15717); test: RNA immunoprecipitation (RNA-IP) pull-down assay; type: cell-based; settings: 20 μM
T4 construct: endogenous in cells; cytoplasmic lysate
T4 sequence (Q15717 2-326 limits assumed): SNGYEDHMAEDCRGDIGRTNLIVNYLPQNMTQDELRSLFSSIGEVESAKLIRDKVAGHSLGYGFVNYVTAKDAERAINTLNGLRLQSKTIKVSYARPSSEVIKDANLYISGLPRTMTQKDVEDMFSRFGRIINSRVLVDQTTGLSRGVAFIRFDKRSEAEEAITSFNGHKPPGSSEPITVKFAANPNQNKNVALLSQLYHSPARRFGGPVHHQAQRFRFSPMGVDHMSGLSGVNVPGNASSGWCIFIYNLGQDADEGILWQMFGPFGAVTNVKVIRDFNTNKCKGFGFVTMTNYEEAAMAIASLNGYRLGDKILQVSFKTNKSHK
Description: Pull-down Assay #1—RNA Immunoprecipitation (RNA-IP): Cells with HuR overexpression will be treated with compounds, then the cell cytoplasmic lysates were collected using NE-PER Nuclear and Cytoplasmic Extraction Kit (Thermo Scientific), and subsequently to the cell cytoplasmic lysates were added the biotinylated target ARE oligo from Msi1 mRNA (ARE^Msi1-Biotin). Following this, streptavidin beads were added to pull down HuR protein bound to ARE^Msi1-Biotin. Unlabeled target AREs used as positive control. Compounds of the present technology block the HuR pull-down by the biotinylated ARE oligo, illustrating inhibition of the HuR-mRNA interaction. For example, using 20 μM KH-39, 20 μM KH-56, and 10 μM KH-58 in such a RNA-IP assay provided the data illustrated in FIG. 5. The numbers immediately below the pictured bands in FIG. 5 are calculated by diving the band intensity of the particular sample by the band intensity of the DMSO treated sample (entry 3). […]

T1 sequence (Q15717 2-326 limits assumed): as above

Q: `CC(C)(C)c1ccc(C(=O)Nc2ccc3[nH]c(C(=O)NO)cc3c2)cc1` [KH-39, 5-(4-(tert-butyl)benzamido)-N-hydroxy-1H-indole-2-carboxamide] was tested. Which “HuR pull-down of target mRNAs” value [1] did it give?
A: at least partially block HuR pull-down of target mRNAs

Q: And the IC50 [2]?
A: 4.74 µM

Q: What about the Ki [3] of the same compound?
A: 0.65 µM

Q: And the Ki [4]?
A: > 20 µM

Q: And the “ARE^Msi1-Biotin mediated pull-down of HuR protein” value [5]?
A: block ARE^Msi1-Biotin mediated pull-down of HuR protein
